Test results: patent US10314816B2, “Antimicrobial compounds, compositions and methods of use thereof” (Wisconsin Alumni Research Foundation, priority 2012, dated 2019)

How the values were obtained:
S. aureus FRI 100 = experiment: Minimum biofilm inhibitory concentration (bMIC); type: cell-based, Staphylococcus aureus; settings: S. aureus FRI 100 biofilm
Procedure: (§1) Determination of the minimum biofilm inhibitory concentration of growth (bMIC) and biofilm eradication concentration (MBEC). Overnight cultures of C. crescentus and S. aureus were grown and diluted 100-fold into appropriate nutrient media. Aliquots of the diluted suspension were transferred into wells of 96-well plates (150 μL/well). 2-fold serial dilutions were performed for compound-containing wells. For every experiment, three replicates for each compound concentration tested were included. After transferring aliquots of the suspension, the plates were closed with specialized lids that have protruding pins (Nunc STP System), and the plates were sealed using Parafilm®. The plates were incubated in a static incubator at 30° C. (C. crescentus) or 37° C. (S. aureus) for 24 hours. After the cells had formed biofilms on the surface of the pins, the pins were rinsed by dipping them in M2 (C. crescentus) or PBS (S. aureus) solutions. To rinse the pins, clean, sterile 96-well plates were used (aliquots of 200 μL/well); each rinse lasted 10 sec. After washing away planktonic cells loosely bound to biofilms, the pins were inserted into a 96-well plate that was pre-aliquoted with nutrient media containing antibiotics (2-fold dilutions, a final volume of 150 μL/well). The plates were sealed with Parafilm®, and incubated for 17 hours, and the bMIC was measured at the end of the incubation by visual inspection. […] The plates were sealed with Parafilm®, incubated for 24 hours, and the MBEC was measured at the end of the incubation by visual inspection.
(§2) Membrane-active compounds are also efficient at eradicating biofilm-associated cells (Table 2). […] To determine the efficacy of antibiotics against biofilms, the minimum biofilm inhibitory concentration (bMIC) and the minimum biofilm eradication concentration (MBEC) were measured. […] After 24 hours of exposure to compounds, the lowest concentration of antibiotic that inhibited planktonic cell growth in the wells (bMIC) was determined.

C. crescentus CB15N [1] = experiment: Minimum stationary-bactericidal concentration (MSC); type: cell-based, Caulobacter crescentus; settings: for MSC: C. crescentus CB15N, stationary cells, 24 hours
Procedure: Determination of the Minimum Stationary-Bactericidal Concentration.
Cultures of C. crescentus (24 hour incubation) and S. aureus cells (5 day incubation) were grown from single colonies. Cells were collected by centrifugation (8500 rpm for 2.5 minutes) and re-suspended in M2 salt solution (for C. crescentus; 1.74 g/L Na2HPO4, 1.06 g/L KH2PO4, and 0.5 g/L NH4Cl) or phosphate-buffered saline (for S. aureus; PBS, Fisher Scientific). The centrifugation and re-suspension was repeated two more times. After the repeated washing steps, the cell suspension was diluted 10-fold to achieve approximately 10^8 cells/mL. Aliquots of the diluted cell suspension were transferred into wells of a 96-well plate (100 μL/well), and 2-fold serial dilutions were performed to test a range of antibiotic concentrations. The plate was sealed with Parafilm® and incubated for 24 hours at room temperature in the dark. After incubation, 50 μl was removed from each well to spread on nutrient agar plates (1.5% agar in PYE for C. crescentus, and LB for S. aureus). The colonies on each plate were counted after growing the cells for 1-2 days. For determining the kinetics of bactericidal activity of DCAP on stationary cultures, the washed cells were diluted by 100-fold in appropriate solutions and tested using a single concentration of the compound while including a DMSO control sample. Cell suspensions were kept in closed microcentrifuge tubes instead of the wells of 96-well plates. 100 μL of the suspensions was removed for plating at each time point. All MSC experiments were performed in static conditions.
In addition to its activity against actively growing bacteria, DCAP kills cells in stationary phase (Table 3). This property was tested against C. crescentus and S. aureus. […] To ensure that bacteria were deprived of nutrients, the cells were grown into late stationary phase (i.e., 24 hours for C. crescentus and 5 days for S. aureus). These cells were collected, suspended in isotonic solutions devoid of amino acids or sugars, and treated with a small molecule (DMSO, DCAP, CCCP or ampicillin). Cell viability was measured over time by plating culture aliquots on non-selective, solid growth media. The minimum concentration of antibiotic required to completely eliminate colony formation was designated as the minimum stationary-bactericidal concentration (MSC). […] CCCP inhibited the proliferation of C. crescentus cells regardless of their physiological status. However, the MSC of CCCP for S. aureus was >300-fold higher than the MIC. This dramatic decrease in the effectiveness of CCCP in S. aureus may be due to changes in membrane composition as cells adjust their metabolism in nutrient-deprived conditions.

C. crescentus CB15N [2] = experiment: MIC of bacterial growth, macrodilution (Table 2); type: cell-based, Caulobacter crescentus; settings: Caulobacter vibrioides, actively growing cells, read-out: MIC
Procedure: Bacterial strains and growth conditions. Luria-Bertani (LB) media (10 g/L tryptone, 10 g/L NaCl, 5 g/L yeast extract, pH 7.2) was used to grow B. subtilis 168, S. aureus FRI100, and P. aeruginosa K1115 strains. For P. aeruginosa PAO1 and K1119 strains and two E. coli BW25113 strains, M8 minimal media (241 mg/L MgSO4, 4 mg/L glucose, 5 mg/L casamino acids, 12.8 g/L Na2HPO4.7H2O, 3 g/L KH2PO4, and 0.5 g/L NaCl) was used. PYE media (2 g/L peptone, 1 g/L yeast extract, 0.8 mM MgSO4, and 0.5 mM CaCl2) was used for culturing C. crescentus cells at 30° C. All cultures were grown at 37° C., except for C. crescentus (30° C.). All cultures were grown while shaking at 200 rpm.
Determination of the minimum inhibitory concentration (MIC) of bacterial growth. The MIC of various organisms in liquid media was determined using the macrodilution method according to the NCCLS guidelines. For the starting inoculum, cultures were diluted to contain approximately 5×10^5 cells/mL in growth media. To create a two-fold dilution series for the macrodilution technique, each compound was added to the first culture tube (4 mL total volume) at the highest concentration. 2 mL of this culture was diluted into an equal volume of inoculated media (a two-fold dilution). The final volume for each culture was 2 mL.

C. crescentus CB15N [3] = experiment: Minimum biofilm inhibitory concentration (bMIC); type: cell-based, Caulobacter crescentus
Procedure: as §1, §2

| Structure (SMILES) | bMIC (S. aureus FRI 100) | Minimum time required to obtain the MSC (C. crescentus CB15N [1]; C. crescentus) | MSC (C. crescentus CB15N [1]) | MIC (C. crescentus CB15N [2]) | bMIC (C. crescentus CB15N [3]) |
| --- | --- | --- | --- | --- | --- |
| OCC(CO)(CO)NCC(O)Cn1c2ccc(Cl)cc2c2cc(Cl)ccc21 (stereo not drawn) [DCAP, 2-((3-(3,6-dichloro-9H-carbazol-9-yl)-2-hydroxypropyl)amino)-2-(hydroxymethyl)propane-1,3-diol] | 100 µM | 2 h | 20 µM | 15 µM | 20 µM |
| N#CC(C#N)=NNc1cccc(Cl)c1 [CCCP, carbonyl cyanide m-chlorophenyl hydrazone] | 2.5 µM | – | 2.5 µM | 5 µM | 5 µM |
